Data taken from ChEMBL document CHEMBL1201862, “PubChem BioAssay data set” (2004).
Counter-ions that a name gives are not always drawn. The source made the active and inactive calls.

Assays:
Cytochrome P450 2C9 = Cytochrome P450 2C9 (Homo sapiens, UniProt P11712)
Cytochrome P450 3A4 = Cytochrome P450 3A4 (Homo sapiens, UniProt P08684);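 note: CYP3A4 tested as one member of a cytochrome P450 panel screen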
Cytochrome P450 2D6 = Cytochrome P450 2D6 (Homo sapiens, UniProt P10635);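 note: CYP2D6 member of a cytochrome P450 panel assay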
Cytochrome P450 2D6, sequence (P10635 whole entry): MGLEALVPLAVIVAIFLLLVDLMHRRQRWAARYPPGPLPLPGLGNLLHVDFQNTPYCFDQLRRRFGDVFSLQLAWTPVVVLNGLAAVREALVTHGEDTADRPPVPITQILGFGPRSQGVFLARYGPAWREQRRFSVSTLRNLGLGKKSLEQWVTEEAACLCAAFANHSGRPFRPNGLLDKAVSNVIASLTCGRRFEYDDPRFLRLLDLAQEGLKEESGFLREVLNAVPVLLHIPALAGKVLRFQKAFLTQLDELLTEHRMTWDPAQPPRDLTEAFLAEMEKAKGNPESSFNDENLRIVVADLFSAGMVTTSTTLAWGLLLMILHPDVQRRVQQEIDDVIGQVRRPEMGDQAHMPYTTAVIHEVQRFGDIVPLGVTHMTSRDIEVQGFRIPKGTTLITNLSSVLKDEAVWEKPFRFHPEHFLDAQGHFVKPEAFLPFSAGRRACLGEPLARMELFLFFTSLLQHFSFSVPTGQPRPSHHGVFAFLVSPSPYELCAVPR

[1] = biological target: T1, Ubiquitin-conjugating enzyme E2 N (Homo sapiens, UniProt P61088); type: functional;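 note: Dose-response confirmation in a TR-FRET assay detecting UBC13-driven polyubiquitin chain formation, inhibition measured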
T1 sequence (P61088 whole entry): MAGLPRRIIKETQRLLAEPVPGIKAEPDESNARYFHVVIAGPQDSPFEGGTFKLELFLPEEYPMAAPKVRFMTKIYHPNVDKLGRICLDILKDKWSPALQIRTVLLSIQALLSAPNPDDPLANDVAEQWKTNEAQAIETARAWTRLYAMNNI

Nonstructural protein 1 = Nonstructural protein 1 (Influenza A virus, UniProt Q194T2); type: functional, Influenza A virus (A/California/07/2009(H1N1))
[2] = MC4R antagonists, dose response, counter-screen for LGR2 antagonist project, cell-based, plate reader, cherry pick (AID 743444); type: functional;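 note: transfected HEK 293 cells stimulated with alpha-MSH peptide; potency of inhibitors of the alpha-MSH evoked signal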
[3] = LGR2 antagonists, dose response, cell-based, HEK293, CRE-luciferase reporter, cherry pick, set 2 (AID 743343); type: functional;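 note: transfected cells were stimulated with diluted bursicon conditioned medium after compound addition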
Large T antigen = Large T antigen (Simian virus 40, UniProt P03070); type: functional, Betapolyomavirus macacae;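 note: Confirmatory-stage PubChem screen for compounds that inhibit SV40 T antigen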
[4] = biological target: T2, Corticotropin-releasing factor receptor 2/Corticotropin-releasing factor-binding protein (Homo sapiens, UniProt P24387+Q13324); assay: activators of CRF receptor 2 with binding protein – uHTS hits, confirmation (AID 602473); type: functional; details: read-out: EC50_Mean
T2 sequence (Q13324 whole entry): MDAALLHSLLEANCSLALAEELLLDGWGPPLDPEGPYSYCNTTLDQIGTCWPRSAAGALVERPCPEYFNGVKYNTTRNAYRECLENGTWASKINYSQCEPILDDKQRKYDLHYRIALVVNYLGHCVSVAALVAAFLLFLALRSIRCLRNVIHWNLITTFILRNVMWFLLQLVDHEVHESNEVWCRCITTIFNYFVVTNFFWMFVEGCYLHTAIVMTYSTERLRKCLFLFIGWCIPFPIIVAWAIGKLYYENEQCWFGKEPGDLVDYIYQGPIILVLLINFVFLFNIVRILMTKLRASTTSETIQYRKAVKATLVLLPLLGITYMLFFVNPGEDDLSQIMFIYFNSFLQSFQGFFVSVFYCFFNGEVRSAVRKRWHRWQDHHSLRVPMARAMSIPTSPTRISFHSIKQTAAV
T2 sequence (P24387 whole entry): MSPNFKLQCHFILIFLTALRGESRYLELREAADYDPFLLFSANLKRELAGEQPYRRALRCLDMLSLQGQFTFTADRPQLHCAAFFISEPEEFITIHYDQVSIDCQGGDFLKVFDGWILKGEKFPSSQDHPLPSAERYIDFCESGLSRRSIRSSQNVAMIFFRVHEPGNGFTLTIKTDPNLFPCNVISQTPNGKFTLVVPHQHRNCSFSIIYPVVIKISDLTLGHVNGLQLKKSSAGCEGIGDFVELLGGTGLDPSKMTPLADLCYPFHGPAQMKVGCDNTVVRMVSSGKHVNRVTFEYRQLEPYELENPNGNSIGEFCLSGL

[5] = biological target: T2, Corticotropin-releasing factor receptor 2/Corticotropin-releasing factor-binding protein; assay: Dose Response confirmation of uHTS hits for small molecule antagonists of the CRF-binding protein and CRF-R2 receptor complex.; type: functional; details: read-out: IC50_Mean
[6] = biological target: T3, High affinity choline transporter 1 (Homo sapiens, UniProt Q9GZV3); assay: CHT inhibitors, dose response, cell-based, 5-point CRC, membrane potential dye (AID 504840); type: functional
T3 sequence (Q9GZV3 whole entry): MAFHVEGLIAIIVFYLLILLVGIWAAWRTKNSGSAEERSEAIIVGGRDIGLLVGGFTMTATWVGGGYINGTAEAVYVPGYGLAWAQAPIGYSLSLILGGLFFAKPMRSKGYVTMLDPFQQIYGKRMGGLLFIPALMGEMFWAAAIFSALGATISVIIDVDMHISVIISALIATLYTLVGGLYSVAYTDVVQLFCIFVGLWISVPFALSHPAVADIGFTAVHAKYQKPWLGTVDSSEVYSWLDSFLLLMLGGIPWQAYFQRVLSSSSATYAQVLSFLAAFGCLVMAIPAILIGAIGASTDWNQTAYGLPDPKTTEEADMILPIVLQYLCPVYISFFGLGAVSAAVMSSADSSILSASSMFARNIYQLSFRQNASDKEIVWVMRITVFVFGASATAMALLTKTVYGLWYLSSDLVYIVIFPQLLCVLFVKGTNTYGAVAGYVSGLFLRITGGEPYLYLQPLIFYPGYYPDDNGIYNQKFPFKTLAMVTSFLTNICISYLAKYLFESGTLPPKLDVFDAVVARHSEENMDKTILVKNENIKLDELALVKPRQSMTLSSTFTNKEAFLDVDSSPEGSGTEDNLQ

[7] = inhibitors of clade B AD8 Env fusion, dose response, cell-based, cherry-pick (AID 652062); type: functional;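 note: luciferase signal from cell-cell fusion driven by HIV-1 clade B AD8 Env; potency is for inhibitors of fusion seen as a drop in luminescence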
[8] = inhibitors of HIV Env-driven cell fusion, dose response, cherry-pick (AID 652057); type: functional, cell-based
[9] = off-target signal loss in HeLa-CEM21 co-culture – HeLa F-luc CTL cells, cherry-picked, counter-screen for HIV-1 Env fusion inhibitor project, dose response (AID 652040); type: functional, cell-based;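 note: potency for signal decrease marking cytotoxic or nonspecific inhibition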
[10] = ZM109 Env clade C HIV-1 fusion inhibitors, dose response, HeLa effector, CEM target cells, luciferase, cherry-pick (AID 652058); type: functional, cell-based
Streptococcus = assay: Group A Streptococcus viability loss, dose response, counter-screen for streptokinase expression inhibitor project, luminescence, BacTiterGlo (AID 1915); type: functional, organism-based;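 note: potency for reduction of bacterial viability or growth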
Streptokinase A = biological target: T4, Streptokinase A (Streptococcus pyogenes serotype M1, UniProt P10520); assay: S. pyogenes streptokinase expression inhibitors, potency, dose response, plasminogen activation absorbance, OD405 (AID 1914); type: functional, Streptococcus pyogenes M1 GAS;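 note: secreted streptokinase activity via plasminogen activation per viability signal from cell pellet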
T4 sequence (P10520 whole entry): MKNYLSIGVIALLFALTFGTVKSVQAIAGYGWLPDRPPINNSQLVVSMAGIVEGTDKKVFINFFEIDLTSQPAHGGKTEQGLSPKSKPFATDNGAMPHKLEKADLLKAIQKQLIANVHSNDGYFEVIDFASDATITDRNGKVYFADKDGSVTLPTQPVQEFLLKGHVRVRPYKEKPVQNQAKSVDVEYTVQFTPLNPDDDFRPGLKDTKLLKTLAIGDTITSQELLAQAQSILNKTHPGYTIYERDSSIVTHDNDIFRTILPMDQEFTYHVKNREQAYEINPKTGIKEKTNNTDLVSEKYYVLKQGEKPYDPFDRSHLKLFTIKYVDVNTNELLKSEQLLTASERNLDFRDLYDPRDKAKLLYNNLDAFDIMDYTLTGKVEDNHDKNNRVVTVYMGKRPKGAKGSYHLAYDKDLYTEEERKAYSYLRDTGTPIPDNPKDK

Prothrombin = Prothrombin (Homo sapiens, UniProt P00734); assay: Thrombin 1536 HTS Dose Response Confirmation. [Related pubchem assays: 1046 (Thrombin 1536 HTS; hits were confirmed in this assay)]; type: functional
[11] = biological target: Peroxisome proliferator-activated receptor gamma/Nuclear receptor coactivator 2 (Homo sapiens, UniProt P37231); type: functional;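 note: agonist potency for raising coactivator recruitment to the receptor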
Peroxisome proliferator-activated receptor gamma/Nuclear receptor coactivator 2, sequence (P37231 whole entry): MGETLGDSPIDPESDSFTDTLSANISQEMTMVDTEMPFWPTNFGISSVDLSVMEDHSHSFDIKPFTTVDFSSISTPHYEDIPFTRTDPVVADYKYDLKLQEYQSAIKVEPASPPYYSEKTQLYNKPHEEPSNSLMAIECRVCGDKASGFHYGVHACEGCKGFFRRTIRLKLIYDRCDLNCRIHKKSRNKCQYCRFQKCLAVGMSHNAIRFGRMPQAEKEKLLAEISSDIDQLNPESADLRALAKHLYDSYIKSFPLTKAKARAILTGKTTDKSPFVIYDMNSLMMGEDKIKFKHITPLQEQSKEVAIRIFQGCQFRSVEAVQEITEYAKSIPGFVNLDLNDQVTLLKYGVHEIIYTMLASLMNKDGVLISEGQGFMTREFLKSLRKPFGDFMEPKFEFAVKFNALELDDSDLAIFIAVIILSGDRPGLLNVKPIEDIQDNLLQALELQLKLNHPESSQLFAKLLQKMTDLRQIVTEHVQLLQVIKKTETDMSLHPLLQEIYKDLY
Peroxisome proliferator-activated receptor gamma/Nuclear receptor coactivator 2, sequence (Q15596 whole entry, further chain): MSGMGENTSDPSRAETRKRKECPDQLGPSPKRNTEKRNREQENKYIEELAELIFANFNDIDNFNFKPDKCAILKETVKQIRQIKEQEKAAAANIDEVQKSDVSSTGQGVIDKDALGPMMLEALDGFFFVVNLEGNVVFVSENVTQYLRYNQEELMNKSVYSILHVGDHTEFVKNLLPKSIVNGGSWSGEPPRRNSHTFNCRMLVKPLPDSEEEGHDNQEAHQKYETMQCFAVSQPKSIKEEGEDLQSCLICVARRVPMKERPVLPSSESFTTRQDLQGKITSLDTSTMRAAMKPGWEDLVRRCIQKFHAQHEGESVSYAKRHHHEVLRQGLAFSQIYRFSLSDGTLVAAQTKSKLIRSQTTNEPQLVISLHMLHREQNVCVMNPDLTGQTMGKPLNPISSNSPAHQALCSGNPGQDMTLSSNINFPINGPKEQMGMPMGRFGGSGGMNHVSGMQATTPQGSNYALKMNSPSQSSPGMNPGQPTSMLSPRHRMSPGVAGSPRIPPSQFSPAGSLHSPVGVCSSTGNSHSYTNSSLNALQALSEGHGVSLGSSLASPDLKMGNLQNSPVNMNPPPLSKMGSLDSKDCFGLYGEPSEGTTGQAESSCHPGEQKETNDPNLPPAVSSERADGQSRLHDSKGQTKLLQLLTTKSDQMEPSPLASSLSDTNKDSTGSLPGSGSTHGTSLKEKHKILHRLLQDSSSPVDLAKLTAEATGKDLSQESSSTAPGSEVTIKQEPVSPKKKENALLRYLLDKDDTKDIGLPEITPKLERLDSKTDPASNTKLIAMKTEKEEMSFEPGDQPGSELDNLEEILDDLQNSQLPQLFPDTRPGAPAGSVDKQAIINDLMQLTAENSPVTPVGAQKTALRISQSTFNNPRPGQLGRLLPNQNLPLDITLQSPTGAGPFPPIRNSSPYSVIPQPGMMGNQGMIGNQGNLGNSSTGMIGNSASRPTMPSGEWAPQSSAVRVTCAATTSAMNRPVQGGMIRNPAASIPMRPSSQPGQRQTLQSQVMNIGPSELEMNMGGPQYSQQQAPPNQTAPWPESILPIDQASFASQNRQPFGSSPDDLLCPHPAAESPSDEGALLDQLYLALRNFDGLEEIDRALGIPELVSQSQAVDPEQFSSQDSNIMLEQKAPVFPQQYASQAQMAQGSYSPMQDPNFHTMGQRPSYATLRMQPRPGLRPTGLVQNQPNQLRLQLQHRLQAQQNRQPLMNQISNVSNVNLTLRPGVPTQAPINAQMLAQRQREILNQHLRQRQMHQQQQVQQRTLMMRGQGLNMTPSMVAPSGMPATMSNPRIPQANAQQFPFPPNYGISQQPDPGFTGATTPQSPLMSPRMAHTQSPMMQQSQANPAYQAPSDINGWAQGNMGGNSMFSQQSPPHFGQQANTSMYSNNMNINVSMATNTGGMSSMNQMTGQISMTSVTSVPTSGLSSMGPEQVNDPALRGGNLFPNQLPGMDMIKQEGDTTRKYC

[12] = biological target: Peroxisome proliferator-activated receptor gamma/Nuclear receptor coactivator 3 (Homo sapiens, UniProt P37231); type: functional;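 note: agonist potency for raising coactivator recruitment to the receptor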
Peroxisome proliferator-activated receptor gamma/Nuclear receptor coactivator 3, sequence (P37231 whole entry): as the sequence (P37231 whole entry) above
Peroxisome proliferator-activated receptor gamma/Nuclear receptor coactivator 3, sequence (Q9Y6Q9 whole entry, further chain): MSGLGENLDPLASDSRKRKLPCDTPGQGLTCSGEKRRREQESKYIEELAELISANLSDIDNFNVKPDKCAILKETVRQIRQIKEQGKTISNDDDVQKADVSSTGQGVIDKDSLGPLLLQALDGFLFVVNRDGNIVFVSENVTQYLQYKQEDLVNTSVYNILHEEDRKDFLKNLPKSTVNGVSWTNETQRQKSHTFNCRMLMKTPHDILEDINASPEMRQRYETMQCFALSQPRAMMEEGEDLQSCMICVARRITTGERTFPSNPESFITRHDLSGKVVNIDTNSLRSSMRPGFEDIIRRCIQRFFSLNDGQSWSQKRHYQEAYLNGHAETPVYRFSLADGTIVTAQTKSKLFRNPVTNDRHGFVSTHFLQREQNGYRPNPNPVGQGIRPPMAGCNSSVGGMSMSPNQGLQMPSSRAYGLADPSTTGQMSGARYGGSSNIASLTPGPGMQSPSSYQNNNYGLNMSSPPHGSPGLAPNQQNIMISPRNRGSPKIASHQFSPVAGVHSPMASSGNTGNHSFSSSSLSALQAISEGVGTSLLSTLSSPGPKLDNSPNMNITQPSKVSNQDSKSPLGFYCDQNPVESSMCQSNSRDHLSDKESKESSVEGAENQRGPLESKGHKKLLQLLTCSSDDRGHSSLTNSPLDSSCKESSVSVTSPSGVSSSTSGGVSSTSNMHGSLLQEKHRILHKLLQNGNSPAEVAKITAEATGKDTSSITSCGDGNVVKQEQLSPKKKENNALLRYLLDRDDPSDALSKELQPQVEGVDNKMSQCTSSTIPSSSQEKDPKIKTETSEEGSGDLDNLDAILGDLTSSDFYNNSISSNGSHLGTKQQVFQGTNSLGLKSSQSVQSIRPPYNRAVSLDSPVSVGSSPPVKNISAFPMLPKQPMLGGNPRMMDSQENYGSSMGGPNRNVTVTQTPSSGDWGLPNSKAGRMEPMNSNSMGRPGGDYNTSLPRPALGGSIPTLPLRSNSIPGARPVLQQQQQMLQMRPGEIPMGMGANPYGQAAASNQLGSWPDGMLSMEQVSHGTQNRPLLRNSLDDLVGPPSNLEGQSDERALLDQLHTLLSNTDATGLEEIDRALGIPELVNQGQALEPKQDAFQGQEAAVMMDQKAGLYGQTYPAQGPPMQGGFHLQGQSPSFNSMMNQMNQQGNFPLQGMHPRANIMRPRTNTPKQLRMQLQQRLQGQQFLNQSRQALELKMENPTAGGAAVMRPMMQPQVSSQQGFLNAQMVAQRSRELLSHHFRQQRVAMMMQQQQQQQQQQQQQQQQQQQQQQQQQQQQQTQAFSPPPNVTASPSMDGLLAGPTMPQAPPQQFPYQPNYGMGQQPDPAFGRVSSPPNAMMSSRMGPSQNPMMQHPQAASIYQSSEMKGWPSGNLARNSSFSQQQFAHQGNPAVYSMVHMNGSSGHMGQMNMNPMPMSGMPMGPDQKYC

[13] = biological target: Peroxisome proliferator-activated receptor gamma/Nuclear receptor coactivator 1 (Homo sapiens, UniProt P37231); type: functional;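 note: agonist potency as compounds enhance coactivator SRC-1 recruitment to PPARgamma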
Cytochrome P450 1A2 = biological target: T5, Cytochrome P450 1A2 (Homo sapiens, UniProt P05177);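 note: PubChem cytochrome P450 panel assay, CYP1A2 panel member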
T5 sequence (P05177 whole entry): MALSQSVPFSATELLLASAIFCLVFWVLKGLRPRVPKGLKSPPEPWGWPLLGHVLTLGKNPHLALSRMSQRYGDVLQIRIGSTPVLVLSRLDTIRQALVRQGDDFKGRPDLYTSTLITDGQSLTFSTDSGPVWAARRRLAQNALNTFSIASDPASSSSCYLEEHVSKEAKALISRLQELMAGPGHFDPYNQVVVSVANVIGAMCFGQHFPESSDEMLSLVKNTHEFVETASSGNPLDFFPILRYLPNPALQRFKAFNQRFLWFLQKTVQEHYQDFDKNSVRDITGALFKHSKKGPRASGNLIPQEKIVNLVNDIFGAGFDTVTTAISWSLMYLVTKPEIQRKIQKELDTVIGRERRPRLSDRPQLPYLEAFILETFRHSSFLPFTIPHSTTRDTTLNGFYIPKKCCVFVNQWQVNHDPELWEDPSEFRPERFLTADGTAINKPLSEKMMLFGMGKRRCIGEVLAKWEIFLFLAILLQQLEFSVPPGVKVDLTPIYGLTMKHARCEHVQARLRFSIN

[14] = biological target: Heat shock protein HSP 90-alpha (Homo sapiens, UniProt P07900); type: functional, organism-based
[15] = microbe, parasite or virus in culture; type: functional; details: Mycobacterium tuberculosis
[16] = Luminescence Cell-Based Dose Retest to Confirm Inhibitors of Cancer Stem Cells. [Related pubchem assays (depositor defined):AID2717, AID2721]; type: functional; details: Homo sapiens

Cytochrome P450 3A4, sequence (P08684 whole entry): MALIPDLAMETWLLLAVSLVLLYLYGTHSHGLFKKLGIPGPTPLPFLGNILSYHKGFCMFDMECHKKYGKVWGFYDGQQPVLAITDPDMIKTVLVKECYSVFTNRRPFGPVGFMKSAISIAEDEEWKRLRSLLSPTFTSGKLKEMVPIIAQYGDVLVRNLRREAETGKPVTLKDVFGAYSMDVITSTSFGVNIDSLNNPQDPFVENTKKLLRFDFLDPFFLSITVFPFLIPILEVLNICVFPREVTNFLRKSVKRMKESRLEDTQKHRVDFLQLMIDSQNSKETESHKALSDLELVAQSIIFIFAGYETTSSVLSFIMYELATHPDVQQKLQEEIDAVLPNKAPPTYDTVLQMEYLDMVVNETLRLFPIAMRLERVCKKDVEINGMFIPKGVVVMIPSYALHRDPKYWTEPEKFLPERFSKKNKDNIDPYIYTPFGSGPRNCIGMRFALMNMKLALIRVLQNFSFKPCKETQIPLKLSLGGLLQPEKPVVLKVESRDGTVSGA

Structure (SMILES): Cc1ccc(-n2c(C)nc3c(cnn3-c3ccc(F)cc3)c2=O)cc1C
- AC50 (Cytochrome P450 2C9): 15.8 µM (inconclusive)
- AC50 (Cytochrome P450 3A4): inconclusive
- AC50 (Cytochrome P450 2D6): 15.8 µM (inconclusive)

Structure (SMILES): CCN=C(S)NNC(=O)c1ccccn1
- IC50 [1]: > 20 µM (inactive)
- IC50 (Nonstructural protein 1): 1.55 µM (active)

Structure (SMILES): COc1cccc(-c2cc(C(=O)N3CCCCCC3)no2)c1
- AC50 [2]: 16.7 µM (active)
- AC50 [3]: 10.3 µM (active)

Structure (SMILES): CC1(C)C(/C=C/C=C/C=C/C=C2\N(CCCCS(=O)(=O)O)c3ccc4ccccc4c3C2(C)C)=[N+](CCCCS(=O)(=O)[O-])c2ccc3ccccc3c21 [INDOCYANINE GREEN]
- IC50 (Large T antigen): 2.1 µM (active)
- EC50 [4]: > 53 µM (inactive)
- IC50 (Nonstructural protein 1): 2.7 µM (active)
- IC50 [5]: > 47.1 µM (inactive)

Structure (SMILES): Cc1nonc1NC(=O)CSc1ccc(-c2ccccc2)nn1
- IC50 [6]: 14.5 µM (active)

Structure (SMILES): Cc1ccc(C(=O)NCC(=O)NCCCc2ccccc2)cc1
- IC50 [6]: 16.6 µM (active)

Structure (SMILES): CN1CC(c2ccccc2)C2(COc3ccccc3C2=O)C12C(=O)Nc1ccccc12 (centres undefined)
- AC50 [7]: 5.51 µM (active)
- AC50 [8]: 2.66 µM (active)
- AC50 [9]: 4.14 µM (active)
- AC50 [10]: 3.46 µM (active)
- AC50 (Cytochrome P450 2D6): 20 µM (inconclusive)

Structure (SMILES): CCOC(=O)c1c(-c2ccc(C)cc2)csc1NC(=O)CCN1CCOCC1
- EC50 (Streptococcus): > 150 µM (not active)
- EC50 (Streptokinase A): 65.4 µM (active)
- IC50 (Prothrombin): > 50 µM (not active)

Structure (SMILES): COC(=O)c1nnc(NC(=O)c2ccc(Br)cc2)[nH]1
- IC50 (Prothrombin): 0.0137 µM (active)

Structure (SMILES): CC(=O)CCc1ccc(OC(=O)c2cccnc2)cc1
- EC50 [11]: > 79.4 µM (not active)
- EC50 [12]: > 79.4 µM (not active)
- EC50 [13]: > 79.4 µM (not active)

Structure (SMILES): CC(=O)OCC(=O)[C@]12OC(C)(C)O[C@@H]1C[C@H]1[C@H]3CC=C4C[C@@H](O)CC[C@]4(C)[C@H]3CC[C@]12C
- AC50 (Cytochrome P450 2C9): 7.94 µM (inconclusive)
- AC50 (Cytochrome P450 3A4): inconclusive

Structure (SMILES): CC(NC(=O)c1cc(S(=O)(=O)N(C)C)ccc1N1CCCC1)C1CC2CCC1C2 (centres undefined)
- AC50 [7]: 7.68 µM (active)
- AC50 [8]: 2.74 µM (active)
- AC50 [9]: 4.89 µM (active)
- AC50 [10]: 4.03 µM (active)

Structure (SMILES): C=CCc1ccc(O)c(-c2ccc(O)c(CC=C)c2)c1 [HONOKIOL]
- IC50 [6]: 12 µM (active)

Structure (SMILES): CCCCN(CCCC)CCC(O)c1cc2c(Cl)cc(Cl)cc2c2cc(C(F)(F)F)ccc12 (centres undefined) [HALOFANTRINE HYDROCHLORIDE]
- AC50 (Cytochrome P450 1A2): 20 µM (inconclusive)
- AC50 [14]: 7.27 µM (active)
- CC50 [15]: > 40 µM (active)
- AC50 [16]: 6.51 µM (active)
- IC50 [1]: > 20 µM (inactive)

Structure (SMILES): COc1ccc(C(=O)Nc2cc(C)c3c(=O)oc4ccccc4c3n2)cc1
- EC50 [11]: 82.8 µM (not active)
- EC50 [12]: > 79.4 µM (not active)
- EC50 [13]: > 79.4 µM (not active)

Structure (SMILES): CC(C)NC(=O)N1CCC2(CC1)CCN(C(=O)c1cccc(F)c1)CC2
- AC50 (Cytochrome P450 3A4): inconclusive

Structure (SMILES): CCOc1ccc(OCC)c(NC(=O)C2CCCN(S(=O)(=O)c3c[nH]cn3)C2)c1 (centres undefined)
- IC50 (Prothrombin): > 50 µM (not active)

Structure (SMILES): Cc1cccc2cc(CN(Cc3ccc4c(c3)OCO4)Cc3nnnn3C3CCCC3)c(=O)[nH]c12
- EC50 [11]: > 79.4 µM (not active)
- EC50 [12]: > 79.4 µM (not active)
- EC50 [13]: > 79.4 µM (not active)

Structure (SMILES): CCN(CC(=O)Nc1cc(Cl)ccc1C)C(=O)c1ccc(=O)n(Cc2ccccc2)n1
- AC50 [7]: 9.4 µM (active)
- AC50 [8]: 4.27 µM (active)
- AC50 [9]: 5.05 µM (active)
- AC50 [10]: 3.23 µM (active)

Structure (SMILES): C[C@@]12CC[C@@H]3[C@H](CCC4=CC(=O)CC[C@]43C)[C@@H]1CC[C@@H]2C(=O)Cn1cnc2c(S)ncnc21
- AC50 (Cytochrome P450 3A4): inconclusive

Structure (SMILES): O=C(Nc1cnccn1)c1cccc(C(F)(F)F)c1
- EC50 [11]: > 79.4 µM (not active)
- EC50 [12]: > 79.4 µM (not active)
- EC50 [13]: > 79.4 µM (not active)

Structure (SMILES): Cc1ccc(NCC(O)C(O)C(O)CO)c(N=Nc2ccccc2)c1C (centres undefined)
- IC50 (Prothrombin): > 50 µM (not active)
